Data on eight compounds can be found in paper PMC11544713, “The Application of Untargeted Metabolomic Approaches for the Search of Common Bioavailable Metabolites in Human Plasma Samples from Lippia citriodora and Olea europaea Extracts” (Journal of Agricultural and Food Chemistry, 2024).

Where a name gives a salt, the structure may show the parent alone.

The nature of data set [1]: Acute intervention: nutrikinetics of plasma metabolites after ingestion of L. citriodora extract (untargeted HPLC-ESI-QTOF-MS). The procedure: A total of 25 healthy individuals participated, with an average age of 27 ± 9 years and a mean body mass index (BMI) of 23 ± 3 kg/m^2. None of the participants were taking any medications or nutritional supplements nor did they have any chronic diseases or gastrointestinal issues. The sample size was established based on findings from previous bioavailability research.[14] All participants provided informed consent before participating in the study.
The intervention study was carried out at Miguel Hernández University. Following an overnight fast, the volunteers were categorized into the subsequent groups: a subgroup to evaluate the LC leaf extract (n = 8), another for the OE leaf extract (n = 8), and the placebo subgroup (n = 9). This was a double-blind study, in which sample collection and treatment were carried out uniformly across all three subgroups.
Water was provided ad libitum. Prior to the ingestion of the capsule, a nurse inserted a cannula into the ulnar vein of each volunteer’s nondominant arm, and blood samples were drawn into EDTA-coated tubes at baseline (t = 0). Blood samples were then collected at 0.5, 1, 2, 4, 6, 8, and 10 h after the consumption of the 500 mg capsule. Plasma was separated through centrifugation (10 min at 3000 rpm and 4 °C) and stored at −80 °C until further analysis.
Plasma samples were initially treated using a mixture of methanol and ethanol (50:50; v:v) to remove proteins, following previously reported protocols.[19] During the sample treatment, pooled quality controls (pooled-QC) were prepared by combining equal aliquots from each sample. These QC samples were processed by using the same protocols as the experimental biological samples.
A reversed-phase analytical C18 column (Agilent Zorbax Eclipse Plus, 1.8 μm, 4.6 × 150 mm^2) with a protective cartridge with the same packing was used. MS data were acquired in negative ionization mode, operating in full scan across a mass-to-charge ratio (m/z) range of 50–1700. The analytical method used was adapted from that described by Villegas-Aguilar et al.[19]
Metabolite nutrikinetics were studied using PKSolver, an add-in program for pharmacokinetic data analysis in Microsoft Excel. The time to reach the maximum concentration (observed Tmax) was calculated for each significant metabolite. As an untargeted metabolomic approach was used to detect the circulating metabolites, these were not quantified. Therefore, the maximum concentration (Cmax) and area under the curve (AUC) parameters were calculated in a relative way by using the deconvoluted chromatographic areas. […] Statistical differences were determined by unpaired t tests. All p values less than 0.05 were considered statistically significant.

Data set [2] is described as follows: Acute intervention: nutrikinetics of plasma metabolites after ingestion of O. europaea extract (untargeted HPLC-ESI-QTOF-MS). An outline of the steps:
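Fasted healthy volunteers (n = 8 per extract, placebo n = 9, double-blind) took one 500 mg capsule. Plasma was drawn at 0–10 h, protein-precipitated with methanol:ethanol and analysed by C18 HPLC-ESI-QTOF-MS in negative full scan (m/z 50–1700). Tmax was observed; Cmax and AUC are relative, from deconvoluted peak areas.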

Setting [3] is: 0.5 h after L. citriodora extract.
The mark [4] stands for this setting: 1 h after L. citriodora extract.
Setting [5] is: 2 h after L. citriodora extract.
[6] abbreviates: 4 h after L. citriodora extract.
[7] abbreviates: 6 h after L. citriodora extract.
The mark [8] stands for this setting: 8 h after L. citriodora extract.
[9] abbreviates: 10 h after L. citriodora extract.
[10] abbreviates: human plasma, 500 mg capsule of L. citriodora (LC) extract, oral, mean ± SD.
[11] abbreviates: 0.5 h after O. europaea extract.
[12] abbreviates: human plasma, 500 mg capsule of O. europaea (OE) extract, oral, mean ± SD.

`Cc1cccc(O)c1O` [3-methylcatechol]: the “mean chromatographic area in plasma, T0.5” value in data set [1] (setting [3]) is reported as 0; in data set [2] (setting [11]), 290. Besides, the “mean chromatographic area in plasma, T1” value in data set [1] (setting [4]) is 0; in data set [2] (1 h after O. europaea extract), 235. In addition, the “mean chromatographic area in plasma, T2” value in data set [1] (setting [5]) is 0; in data set [2] (2 h after O. europaea extract) it was 50. Moreover, the figures for the “mean chromatographic area in plasma, T4” value in data set [1] (setting [6]) and in data set [2] (4 h after O. europaea extract) were 86 and 64, respectively. The “mean chromatographic area in plasma, T6” value is recorded as 91 in data set [1] (setting [7]) and 16 in data set [2] (6 h after O. europaea extract). Also, the results for the “mean chromatographic area in plasma, T8” value in data set [1] (setting [8]) and in data set [2] (8 h after O. europaea extract) were 76 and 13, respectively. Also, the “mean chromatographic area in plasma, T10” value in data set [1] (setting [9]) is listed as 58; in data set [2] (10 h after O. europaea extract), 0. Also, the “AUC: area under the zero-moment curve” value in data set [1] (setting [10]) was 565 ± 407 relative chromatographic area/h. Besides, the “Cmax: relative maximum plasma level” value in data set [1] (setting [10]) is listed as 169 ± 59 relative chromatographic area; in data set [2] (setting [12]), 307 ± 160 relative chromatographic area. Moreover, the entries for the “observed Tmax: time required to reach Cmax” value (“observed Tmax: time required” below) in data set [1] (setting [10]) and in data set [2] (setting [12]) were 8 ± 3 h and 0.6 ± 0.2 h, respectively.
Turning to `COc1cc(C=CC(=O)O)ccc1OS(=O)(=O)O` [ferulic acid 4-sulfate], the “mean chromatographic area in plasma, T0.5” value in data set [1] (setting [3]) came out at 33; in data set [2] (setting [11]), 0. The “mean chromatographic area in plasma, T1” value in data set [1] (setting [4]) is 131; in data set [2] (1 h after O. europaea extract), 78. The “mean chromatographic area in plasma, T2” value in data set [1] (setting [5]) is recorded as 259; in data set [2] (2 h after O. europaea extract), 84. In addition, the “mean chromatographic area in plasma, T4” value came to 230 in data set [1] (setting [6]) and 22 in data set [2] (4 h after O. europaea extract). In addition, the “mean chromatographic area in plasma, T6” value was 222 in data set [1] (setting [7]) and 18 in data set [2] (6 h after O. europaea extract). Besides, the “mean chromatographic area in plasma, T8” value amounted to 152 in data set [1] (setting [8]) and 0 in data set [2] (8 h after O. europaea extract). The “mean chromatographic area in plasma, T10” value in data set [1] (setting [9]) was 39; in data set [2] (10 h after O. europaea extract), 0. The “AUC: area under the zero-moment curve” value in data set [1] (setting [10]) was 1752 ± 1781 relative chromatographic area/h. The entries for the “Cmax: relative maximum plasma level” value in data set [1] (setting [10]) and in data set [2] (setting [12]) were 354 ± 254 relative chromatographic area and 142 ± 20 relative chromatographic area, respectively. In addition, the entries for the “observed Tmax: time required” value in data set [1] (setting [10]) and in data set [2] (setting [12]) were 3 ± 2 h and 1.6 ± 0.5 h, respectively.
Take `COc1cc(CC(=O)O)ccc1OS(=O)(=O)O` [homovanillic acid sulfate isomer 1, homovanillic acid sulfate]: in data set [1] (human, in vivo, po, 500 mg), the “AUC: area under the zero-moment curve” value was 1391 ± 1144 relative chromatographic area/h and the “Cmax: relative maximum plasma level” value is recorded as 341 ± 164 relative chromatographic area. In data set [1] (in vivo), the “mean chromatographic area in plasma, T0.5” value worked out at 0; the “mean chromatographic area in plasma, T1” value stood at 0; the “mean chromatographic area in plasma, T2” value is given as 19; the “mean chromatographic area in plasma, T4” value worked out at 147. Also, in data set [1] (in vivo), the “mean chromatographic area in plasma, T6” value is on record as 209; the “mean chromatographic area in plasma, T8” value worked out at 221; the “mean chromatographic area in plasma, T10” value was 207. Further, in data set [2] (human, in vivo, po, 500 mg), the “Cmax: relative maximum plasma level” value was 233 ± 69 relative chromatographic area. In data set [2] (in vivo), the “mean chromatographic area in plasma, T0.5” value is 65; the “mean chromatographic area in plasma, T1” value is 212; the “mean chromatographic area in plasma, T2” value was found to be 192; the “mean chromatographic area in plasma, T4” value is reported as 165. For the same compound, in data set [2] (in vivo), the “mean chromatographic area in plasma, T6” value amounted to 119; the “mean chromatographic area in plasma, T8” value amounted to 108; the “mean chromatographic area in plasma, T10” value is reported as 75.
Turning to `COc1cc(CCO)ccc1OS(=O)(=O)O` [homovanillyl alcohol sulfate], the “mean chromatographic area in plasma, T0.5” value in data set [1] (setting [3]) and in data set [2] (setting [11]) was 0 in each case. Besides, the “mean chromatographic area in plasma, T1” value in data set [1] (setting [4]) was 0; in data set [2] (1 h after O. europaea extract) it was 94. Also, the “mean chromatographic area in plasma, T2” value in data set [1] (setting [5]) came out at 0; in data set [2] (2 h after O. europaea extract), 111. The “mean chromatographic area in plasma, T4” value is given as 45 in data set [1] (setting [6]) and 61 in data set [2] (4 h after O. europaea extract). Besides, the “mean chromatographic area in plasma, T6” value is given as 81 in data set [1] (setting [7]) and 0 in data set [2] (6 h after O. europaea extract). Also, the “mean chromatographic area in plasma, T8” value in data set [1] (setting [8]) is on record as 76; in data set [2] (8 h after O. europaea extract) it was 0. Further, the “mean chromatographic area in plasma, T10” value in data set [1] (setting [9]) is 31; in data set [2] (10 h after O. europaea extract), 0. In addition, the “AUC: area under the zero-moment curve” value in data set [1] (setting [10]) is recorded as 437 ± 278 relative chromatographic area/h. In addition, the “Cmax: relative maximum plasma level” value is listed as 156 ± 49 relative chromatographic area in data set [1] (setting [10]) and 135 ± 32 relative chromatographic area in data set [2] (setting [12]). The “observed Tmax: time required” value came out at 7 ± 2 h in data set [1] (setting [10]) and 2.0 ± 0.9 h in data set [2] (setting [12]).
Regarding `OCCc1ccc(O)c(O)c1` [hydroxytyrosol], in data set [1] (human, in vivo), the “AUC of the sulfated form compared to the glucuronidated form” value is reported as “about 10 times”. Besides, the “detection in plasma samples” value in data set [2] (in vivo) was “detected in plasma samples”.
With gardoside [gardoside isomer 2], in data set [1] (human, in vivo, po, 500 mg), the “AUC: area under the zero-moment curve” value is given as 2015 ± 547 relative chromatographic area/h, the “Cmax: relative maximum plasma level” value is given as 508 ± 110 relative chromatographic area and the “observed Tmax: time required” value came to 2.3 ± 0.7 h. For the same compound, in data set [1] (in vivo), the “mean chromatographic area in plasma, T0.5” value amounted to 123; the “mean chromatographic area in plasma, T1” value is on record as 328; the “mean chromatographic area in plasma, T2” value is 480; the “mean chromatographic area in plasma, T4” value turned out to be 284. In data set [1] (in vivo), the “mean chromatographic area in plasma, T6” value came out at 151; the “mean chromatographic area in plasma, T8” value is given as 51; the “mean chromatographic area in plasma, T10” value stood at 15.
In the case of pteroside Z [pteroside Z isomer 1], in data set [1] (human, in vivo, po, 500 mg), the “AUC: area under the zero-moment curve” value is 123 ± 53 relative chromatographic area/h, the “Cmax: relative maximum plasma level” value is 120 ± 22 relative chromatographic area and the “observed Tmax: time required” value turned out to be 1.2 ± 0.4 h. Also, in data set [1] (in vivo), the “mean chromatographic area in plasma, T0.5” value stood at 0; the “mean chromatographic area in plasma, T1” value came to 105; the “mean chromatographic area in plasma, T2” value is 28; the “mean chromatographic area in plasma, T4” value stood at 0. Moreover, in data set [1] (in vivo), the “mean chromatographic area in plasma, T6” value was 0; the “mean chromatographic area in plasma, T8” value worked out at 0; the “mean chromatographic area in plasma, T10” value is recorded as 0.
Take pteroside Z [pteroside Z isomer 2]: in data set [1] (human, in vivo, po, 500 mg), the “AUC: area under the zero-moment curve” value is listed as 310 ± 84 relative chromatographic area/h, the “Cmax: relative maximum plasma level” value is recorded as 181 ± 58 relative chromatographic area and the “observed Tmax: time required” value stood at 2 ± 1 h. In data set [1] (in vivo), the “mean chromatographic area in plasma, T0.5” value was determined as 28; the “mean chromatographic area in plasma, T1” value is listed as 152; the “mean chromatographic area in plasma, T2” value is 97; the “mean chromatographic area in plasma, T4” value is recorded as 18. In data set [1] (in vivo), the “mean chromatographic area in plasma, T6” value amounted to 0; the “mean chromatographic area in plasma, T8” value is reported as 0; the “mean chromatographic area in plasma, T10” value came to 0.
